Results on 47 molecules are retold here after BindingDB's records for doi:10.7270/Q2DF6PMF (Nmmlsc, 2007).

Molecules are shown by their SMILES. Some results are limits rather than exact numbers.

In the test the target is T1, N-formyl peptide receptor 2 (Homo sapiens, UniProt P25090).
T1 sequence (P25090 whole entry): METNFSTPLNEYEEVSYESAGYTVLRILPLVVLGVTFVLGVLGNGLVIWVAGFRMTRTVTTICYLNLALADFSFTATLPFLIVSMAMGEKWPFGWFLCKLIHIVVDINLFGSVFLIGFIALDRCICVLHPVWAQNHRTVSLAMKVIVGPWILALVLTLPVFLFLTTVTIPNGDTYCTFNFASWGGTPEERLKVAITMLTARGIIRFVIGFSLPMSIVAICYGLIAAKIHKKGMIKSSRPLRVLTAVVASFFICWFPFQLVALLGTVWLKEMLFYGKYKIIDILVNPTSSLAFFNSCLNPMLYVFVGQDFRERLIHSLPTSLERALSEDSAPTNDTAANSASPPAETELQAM
Briefly: FPRL1 binding inhibitor potency, dose response, cell-based, FPR counter-screen, fluorescent ligand (AID 520).

As usually defined, the IC50 is the concentration at which inhibition is half-maximal. Low readings indicate inhibition by little substance, high ones a need for much substance. For `O=C(NCCN1CCOCC1)NC1(C(F)(F)F)Oc2ccc(Cl)cc2O1` (stereo not drawn), the IC50 was above 66.7 µM.
As to `CCn1cc(C(=O)NC2CCC(C)CC2)c(=O)c2cc(S(=O)(=O)N3CCCCC3)ccc21` (stereo not drawn), the IC50 was above 66.7 µM.
Turning to `O=c1c2c(nc3c(-c4ccc(Cl)cc4)c[nH]n13)CCCC2`, the half-maximal inhibitory concentration (IC50) is above 66.7 µM.
Same read-out and setting: in the case of `CCOC(=O)Cc1cc(=O)n2[nH]c(C)c(-c3ccccc3)c2n1` it was above 66.7 µM; in that of `N[C@@H](Cc1ccc(O)c(I)c1)C(=O)O`, above 66.7 µM.
One may read the Ki as the dissociation constant of the complex between target and ligand, obtained from inhibition or displacement. A high value points to a looser hold on the target. Molecule `COC(=O)c1[nH]c(C)c(C(=O)C2C(=O)C(=O)N(CCN3CCOCC3)C2c2cccs2)c1C` (stereo not drawn) gave an IC50 above 66.7 µM and a Ki above 40.3 µM.
`CCCc1cc(=O)n2[nH]c(C)c(-c3ccccc3)c2n1`: the IC50 is above 66.7 µM.
In the case of `CC1=NC(C)=C(C#N)C(c2ccc3ncccc3c2)C1C#N` (stereo not drawn), the IC50 was above 66.7 µM and the Ki is above 40.3 µM.
On to `O=C(NC1CCCC1)c1sc(=S)n2c1[nH]c(=O)c1ccccc12`, for which the IC50 was above 66.7 µM.
Still for that read-out and setting: in the case of `CC(C)OC(=O)c1cc(NC(=O)C2C3CCC(O3)C2C(=O)O)cc(C(=O)OC(C)C)c1` (stereo not drawn) it was above 66.7 µM; in that of `CCN(C(=O)Cc1c(C(=O)O)[nH]c2ccccc12)c1cc(OC)ccc1OC`, above 66.7 µM; in that of `CCOC(=O)Cc1cc(=O)n2[nH]c(C)c(-c3ccc(OC)cc3)c2n1`, above 66.7 µM.
On the same count and under the same terms, the result for `CCOC(=O)c1oc2cc(O)ccc2c(=O)c1-c1ccccc1OC` reads above 66.7 µM.
`Cc1nc2c(C#N)c(C)[nH]n2c(=O)c1Cc1ccccc1` had a half-inhibitory concentration (IC50) above 66.7 µM.
Take `CCOC(=O)c1c(-c2ccc(-c3ccccc3)cc2)csc1NC(=O)C1C2CCC(O2)C1C(=O)O` (stereo not drawn): the concentration for half-maximal inhibition (IC50) is above 66.7 µM.
`Nc1ccc(Nc2ccccc2)cc1` yielded a 50% inhibitory concentration (IC50) above 66.7 µM.
Regarding `O=c1c(CC[S+]([O-])c2ccccc2)c(O)n(-c2ccccc2)n1-c1ccccc1` (stereo not drawn) [1,2-Diphenyl-3,5-dioxo-4-(2-phenylsulfinylethyl)pyrazolidine], the IC50 is above 66.7 µM and the Ki is above 40.3 µM.
On to `COC(=O)C1(S(=O)(=O)c2cccc3nsnc23)CC1` [1-(2,1,3-benzothiadiazol-4-ylsulfonyl)-1-cyclopropanecarboxylic acid methyl ester], for which the 50% inhibitory concentration (IC50) was above 66.7 µM.
Molecule `COc1cccc2cc(C(=O)C3C(=O)C(=O)N(Cc4ccco4)C3c3cccnc3)oc12` (stereo not drawn) [1-(2-furanylmethyl)-4-hydroxy-3-[(7-methoxy-2-benzofuranyl)-oxomethyl]-2-(3-pyridinyl)-2H-pyrrol-5-one] registered a half-maximal inhibitory concentration (IC50) above 66.7 µM and an inhibitory constant (Ki) above 40.3 µM.
`COc1cc(C2C(C(=O)c3cccs3)C(=O)C(=O)N2Cc2ccco2)cc(OC)c1OC` (stereo not drawn) [1-(2-furanylmethyl)-4-hydroxy-3-[oxo(thiophen-2-yl)methyl]-2-(3,4,5-trimethoxyphenyl)-2H-pyrrol-5-one] returned an IC50 above 66.7 µM and an inhibition constant Ki above 40.3 µM.
The molecule `O=C1C(=O)N(Cc2ccco2)C(c2ccccc2)C1C(=O)c1cccs1` (stereo not drawn) [1-(2-furanylmethyl)-4-hydroxy-3-[oxo(thiophen-2-yl)methyl]-2-phenyl-2H-pyrrol-5-one] yielded an IC50 above 66.7 µM and a Ki above 40.3 µM.
For `COCCN1C(=O)C(=O)C(C(=O)c2cccs2)C1c1ccccc1` (stereo not drawn) [1-(2-methoxyethyl)-4-oxidanyl-2-phenyl-3-thiophen-2-ylcarbonyl-2H-pyrrol-5-one] the same measures were above 66.7 µM and above 40.3 µM.
For `O=C1C(=O)N(CCN2CCOCC2)C(c2ccccc2)C1C(=O)c1cccs1` (stereo not drawn) [1-(2-morpholin-4-ylethyl)-4-oxidanyl-2-phenyl-3-thiophen-2-ylcarbonyl-2H-pyrrol-5-one] the same measures were above 66.7 µM and above 40.3 µM.
Take `CCC(NC(=O)Nc1cc(OC)c(OC)c(OC)c1)(C(F)(F)F)C(F)(F)F` [1-(3,4,5-trimethoxyphenyl)-3-[1,1,1-tris(fluoranyl)-2-(trifluoromethyl)butan-2-yl]urea]: the IC50 was above 66.7 µM.
In turn, `Cc1ccc(C(=O)C2C(=O)C(=O)N(CCCn3ccnc3)C2c2ccc(OC(C)C)cc2)o1` (stereo not drawn) [1-(3-imidazol-1-ylpropyl)-3-(5-methylfuran-2-yl)carbonyl-4-oxidanyl-2-(4-propan-2-yloxyphenyl)-2H-pyrrol-5-one] showed an IC50 above 66.7 µM and a Ki above 40.3 µM.
For `CCCOc1ccc(C2C(C(=O)c3ccc(C)o3)C(=O)C(=O)N2CCCn2ccnc2)cc1` (stereo not drawn) [1-(3-imidazol-1-ylpropyl)-3-(5-methylfuran-2-yl)carbonyl-4-oxidanyl-2-(4-propoxyphenyl)-2H-pyrrol-5-one] the same measures were above 66.7 µM and above 40.3 µM.
For the molecule `CC(C)OC(=O)c1nnn(-c2nonc2N)c1CN1CCc2ccccc2C1` [1-(4-amino-1,2,5-oxadiazol-3-yl)-5-(3,4-dihydro-1H-isoquinolin-2-ylmethyl)-4-triazolecarboxylic acid propan-2-yl ester], the IC50 was above 66.7 µM.
With `CCCN=C(S)Nc1ccc(Nc2ccccc2)cc1` [1-(4-anilinophenyl)-3-propyl-thiourea], the IC50 was above 66.7 µM.
Still for that read-out and setting: in the case of `CCOC(=O)C1CCN(Cc2ccc(C(=O)OC)cc2)CC1` [1-(4-carbomethoxybenzyl)isonipecotic acid ethyl ester] it was above 66.7 µM.
The molecule `C=CCOc1ccc(C2C(C(=O)c3cccs3)C(=O)C(=O)N2c2nnc(C)s2)cc1` (stereo not drawn) [1-(5-methyl-1,3,4-thiadiazol-2-yl)-4-oxidanyl-2-(4-prop-2-enoxyphenyl)-3-thiophen-2-ylcarbonyl-2H-pyrrol-5-one] showed an IC50 above 66.7 µM and an inhibition constant (Ki) above 40.3 µM.
For `O=C1C(=O)N(Cc2ccccc2)C(c2cccnc2)C1C(=O)c1ccco1` (stereo not drawn) [1-Benzyl-4-(furan-2-carbonyl)-3-hydroxy-5-pyridin-3-yl-1,5-dihydro-pyrrol-2-one] the same measures were above 66.7 µM and above 40.3 µM.
The molecule `O=C1C(=O)N(Cc2ccccc2)C(c2ccncc2)C1C(=O)c1ccco1` (stereo not drawn) [1-Benzyl-4-(furan-2-carbonyl)-3-hydroxy-5-pyridin-4-yl-1,5-dihydro-pyrrol-2-one] returned a 50% inhibitory concentration (IC50) above 66.7 µM and a Ki above 40.3 µM.
For `O=C1C(=O)N(Cc2ccccc2)C(c2ccco2)C1C(=O)c1ccco1` (stereo not drawn) [1-Benzyl-4-(furan-2-carbonyl)-5-furan-2-yl-3-hydroxy-1,5-dihydro-pyrrol-2-one] the same measures were above 66.7 µM and above 40.3 µM.
Turning to `O=C1C(=O)N(CCOCCO)C(c2cccs2)C1C(=O)c1cccs1` (stereo not drawn) [1-[2-(2-hydroxyethyloxy)ethyl]-4-oxidanyl-2-thiophen-2-yl-3-thiophen-2-ylcarbonyl-2H-pyrrol-5-one], the IC50 was above 66.7 µM and the Ki was above 40.3 µM.
As to `COc1ccc(CCN2C(=O)C(=O)C(C(=O)c3ccco3)C2c2cccs2)cc1OC` (stereo not drawn) [1-[2-(3,4-Dimethoxy-phenyl)-ethyl]-4-(furan-2-carbonyl)-3-hydroxy-5-thiophen-2-yl-1,5-dihydro-pyrrol-2-one], the IC50 is above 66.7 µM and the inhibition constant Ki is above 40.3 µM.
The molecule `OCc1nc2ccccc2n1CC(O)Cn1ccc2ccccc21` (stereo not drawn) [1-[2-(hydroxymethyl)-1-benzimidazolyl]-3-(1-indolyl)-2-propanol] had an IC50 above 66.7 µM.
The same measure, in the same setting: the result for `COc1ccc2nc(Nc3nc(C)c(C(C)=O)s3)sc2c1` [1-[2-[(6-methoxy-1,3-benzothiazol-2-yl)amino]-4-methyl-1,3-thiazol-5-yl]ethanone] reads above 66.7 µM; that for `CN1CCN(CCCNC(=O)Nc2cccc3ccccc23)CC1` [1-[3-(4-methyl-1-piperazinyl)propyl]-3-(1-naphthalenyl)urea], above 66.7 µM.
Still for that read-out and setting: in the case of `C=CCn1c(SCCCC)nc(O)cc1=O` [1-allyl-2-(butylthio)-6-hydroxy-pyrimidin-4-one] it was above 66.7 µM; in that of `Cc1c(CNCc2cccs2)c(C(=O)O)c(C)n1Cc1ccccc1` [1-benzyl-2,5-dimethyl-4-[(2-thenylamino)methyl]pyrrole-3-carboxylic acid], above 66.7 µM.
As for `Cc1ccc(C(=O)C2C(=O)C(=O)N(Cc3ccccc3)C2c2cccnc2)o1` (stereo not drawn) [1-benzyl-3-hydroxy-4-[(5-methylfuran-2-yl)carbonyl]-5-(pyridin-3-yl)-2,5-dihydro-1H-pyrrol-2-one], the IC50 is above 66.7 µM and the Ki was above 40.3 µM.
The molecule `Cc1cccc(Nc2ccccc2C(=O)NCc2ccco2)c1C` [2-(2,3-dimethylanilino)-N-(2-furanylmethyl)benzamide] had an IC50 above 66.7 µM.
In the case of `COc1ccc(OC)c(C2C(C(=O)c3cccs3)C(=O)C(=O)N2c2cc(C)on2)c1` (stereo not drawn) [2-(2,5-dimethoxyphenyl)-1-(5-methyl-1,2-oxazol-3-yl)-4-oxidanyl-3-thiophen-2-ylcarbonyl-2H-pyrrol-5-one], the IC50 was above 66.7 µM and the Ki was above 40.3 µM.
The molecule `COc1ccc(OC)c(C2C(C(=O)c3ccco3)C(=O)C(=O)N2CCCN2CCOCC2)c1` (stereo not drawn) [2-(2,5-dimethoxyphenyl)-3-(furan-2-carbonyl)-4-hydroxy-1-(3-morpholin-4-ylpropyl)-2H-pyrrol-5-one] showed an IC50 above 66.7 µM and an inhibitory constant (Ki) above 40.3 µM.
`CCCOc1ccc2c(=O)c(N3C(=O)c4ccccc4C3=O)c(C)oc2c1` [2-(2-methyl-4-oxidanylidene-7-propoxy-chromen-3-yl)isoindole-1,3-dione] returned a 50% inhibitory concentration (IC50) above 66.7 µM.
Regarding `O=C1C(=O)N(c2ncccn2)C(c2ccc(Cl)c(Cl)c2)C1C(=O)c1ccco1` (stereo not drawn) [2-(3,4-dichlorophenyl)-3-(furan-2-carbonyl)-4-hydroxy-1-pyrimidin-2-yl-2H-pyrrol-5-one], the half-inhibitory concentration (IC50) is above 66.7 µM and the Ki is above 40.3 µM.
For `COc1ccc(C2C(C(=O)c3cccs3)C(=O)C(=O)N2c2nnc(C)s2)cc1OC` (stereo not drawn) [2-(3,4-dimethoxyphenyl)-1-(5-methyl-1,3,4-thiadiazol-2-yl)-4-oxidanyl-3-thiophen-2-ylcarbonyl-2H-pyrrol-5-one] the same measures were above 66.7 µM and above 40.3 µM.
